Type: physicochemical
Source text: In many high output meat packing plants, space to install the biocide feeder in an easily accessible location is not readily available. The smaller area required for a BCDMH feeder system relative to a DBDMH system, is advantageous with respect to installation flexibility. For example, because of higher bromine output, a plant utilizing BCDMH may utilize a smaller number of biocide feeders than a plant utilizing DBDMH feeders. Also, because each point of application of aqueous biocide in the plant requires a certain bromine residual in a certain flow of water, the much higher output of bromine from a BCDMH feeder to achieve the desired bromine residual, requires much less water flow to the feeder for BCDMH than DBDMH. Since the source of water and the feeder are often quite distant from each other, a need for providing a new line just for the feeder is disadvantageous and expensive. But, pursuant to this invention, oftentimes excess water supplied to existing equipment near the feeder can be employed thereby eliminating the need for installation of a new special water line to the feeder. In other words, since BCDMH requires less than half the water flow of DBDMH, in many situations this water source would have sufficient flow for BCDMH while that same flow would be insufficient for DBDMH. […]

| water solubility | Structure (SMILES) |
| --- | --- |
| 890 ppm | CC1(C)C(=O)N(Cl)C(=O)N1Br [BCDMH, N,N′-bromochloro-5,5-dimethylhydantoin] |
| 405 ppm | CC1(C)C(=O)N(Br)C(=O)N1Br [DBDMH, 1,3-dibromo-5,5-dimethylhydantoin] |

Source: patent US8002614B2, “Microbiocidal control in the processing of meat-producing four-legged animals” (priority 2005, dated 2011)
